Laboratory results published in US10881110B2, “Herbicidal compositions comprising isoxazolo[5,4-b]pyridines” (BASF SE, priority 2014, dated 2021).
Like-named read-outs stand apart in the source and are kept apart here.

How the values were obtained:
Test in all cases: greenhouse post-emergence herbicidal test
[1] = system: LAMAM; format: in vivo, Lamium amplexicaule; parameters: key: scale 0 to 100
Protocol: The culture containers used were plastic pots containing medium loamy sand with approximately 4.6% of humus and 69.9% sand as substrate. The seeds of the test plants were sown separately for each species.
For the post-emergence treatment, the test plants were grown to a plant height of from 1 to 15 cm, depending on the plant habit, and only then treated with the active compounds which had been suspended or emulsified in water. To this end, the test plants were either sown directly, and grown in the same containers, or they were first grown separately as seedlings and transplanted into the test containers a few days prior to treatment.
Depending on the species, the plants were kept at 10-25° C. and 20-35° C., respectively.
The test period extended over 1 to 3 weeks. During this time, the plants were tended and their response to the individual treatments was evaluated 20 days after treatment except mentioned otherwise.
Evaluation was carried out using a scale from 0 to 100. 100 means no emergence of the plants, or complete destruction of at least the above-ground parts, and 0 means no damage or normal course of growth.
The respective stated components A and B, and, if appropriate, C, were formulated as a 10% by weight strength emulsion concentrate and, with addition of the amount of solvent system, introduced into the spray liquor used for applying the active compound. In the examples, the solvent used was water.
In the examples below, using the method of S. R. Colby (1967) “Calculating synergistic and antagonistic responses of herbicide combinations”, Weeds 15, p. 22 ff., the value E, which is expected if the activity of the individual active compounds is only additive, was calculated. E=X+Y−(X·Y/100)

[2] = system: CHEAL; format: in vivo, Chenopodium album
Procedure, shortened: (§1)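 Once 1 to 15 cm tall, potted seedlings in loamy sand received the active compounds emulsified or suspended in water. After 20 days, damage versus untreated growth was graded on a 0–100 scale, and synergy judged against Colby's additive value E.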

[3] = system: APESV; format: in vivo, Apera spica-venti; parameters: key to herbicidal activity against APESV found: rating on a scale from 0 to 100; details: post emergence; for pest or weed control at 31.25 g/ha / pest or weed control at 62.5 g/ha / pest or weed control at 125 g/ha: Apera spica-venti, post-emergence, 480 h, read-out: herbicidal activity against APESV found
Procedure, shortened: as §1

[4] = system: IPOHE; format: in vivo, Ipomoea hederacea; parameters: key to herbicidal activity against IPOHE found: rating on a scale from 0 to 100; details: post emergence; for pest or weed control at 31.25 g/ha: 31.25 g/ha a.i.
Procedure, shortened: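 Post-emergence greenhouse test: plants in loamy sand, sprayed at 1–15 cm height with aqueous spray liquor from 10% emulsion concentrates, kept at 10-25 °C or 20-35 °C by species. Damage scored 0–100 (100 = complete destruction), usually 20 days after treatment. Expected additive effect E from Colby: E=X+Y−(X·Y/100).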

[5] = a.i. g/ha: I.1 6.9, B.67 62.5, 20 days after treatment

## O=C(O)c1cc(C2CC2)nc2onc(C3CC3)c12 [I.1]
[1]; 31.25 g/ha a.i.
  herbicidal activity against LAMAM, found: 70
[1]; application rate a.i.: I.1 31.25 g/ha, B.139 (pyroxasulfone) 25 g/ha, alone or as mixture (composition 1.139)
  herbicidal activity against LAMAM, found: 80
[1]; application rate a.i.: I.1 31.25 g/ha, B.87 (carfentrazone-ethyl) 1.75 g/ha, alone or as mixture (composition 1.87)
  herbicidal activity against LALAM, found: 70
[1]; application rate a.i.: I.1 62.5 g/ha, B.87 (carfentrazone-ethyl) 1.75 g/ha, alone or as mixture (composition 1.87)
  herbicidal activity against LAMAM, found: 85
[2]; [5]
  herbicidal activity against CHEAL found: 0%
[2]; a.i. g/ha: I.1 15.6, B.190 62.5, 20 days after treatment
  herbicidal activity against CHEAL found: 70%
[2]; a.i. g/ha: I.1 15.6, B.67 125, 20 days after treatment
  herbicidal activity against CHEAL found: 0%
[2]; a.i. g/ha: I.1 20.8, B.192 62.5, 20 days after treatment
  herbicidal activity against CHEAL found: 85%
[2]; a.i. g/ha: I.1 20.8, B.67 62.5, 20 days after treatment
  herbicidal activity against CHEAL found: 85%
[2]; a.i. g/ha: I.1 31.25, B.67 125, 20 days after treatment
  herbicidal activity against CHEAL found: 65%
[2]; a.i. g/ha: I.1 31.25, B.69 25, 20 days after treatment
  herbicidal activity against CHEAL found: 30%
[2]; a.i. g/ha: I.1 31.25, B.76 225, 20 days after treatment
  herbicidal activity against CHEAL found: 30%
[2]; a.i. g/ha: I.1 62.5, B.69 25, 20 days after treatment
  herbicidal activity against CHEAL found: 60%
[2]; a.i. g/ha: I.1 62.5, B.76 225, 20 days after treatment
  herbicidal activity against CHEAL found: 60%
[2]; a.i. g/ha: I.1 62.5, B.82 31.25, 20 days after treatment
  herbicidal activity against CHEAL found: 60%
[3]; I.1 alone 31.25 g/ha a.i.
  pest or weed control at 31.25 g/ha: 0%
[3]; I.1 alone 62.5 g/ha a.i.
  pest or weed control at 62.5 g/ha: 0%
[3]; I.1 alone 125 g/ha a.i.
  pest or weed control at 125 g/ha: 0%
[3]; 31.25 g/ha a.i.
  pest or weed control at 31.25 g/ha: 0%
[3]; 62.5 g/ha a.i.
  pest or weed control at 62.5 g/ha: 0%
[3]; I.1 125 g/ha a.i.
  pest or weed control at 125 g/ha: 15%
[3]; single active, 31.25 g/ha a.i.
  pest or weed control at 31.25 g/ha: 0%
[3]; single active, 62.5 g/ha a.i.
  pest or weed control at 62.5 g/ha: 0%
[3]; single active, 125 g/ha a.i.
  pest or weed control at 125 g/ha: 0%
[3]; I.1 15.62 g/ha, B.88 1 g/ha a.i.
  herbicidal activity against APESV found: 0
[3]; I.1 15.62 g/ha, B.95 1 g/ha a.i.
  herbicidal activity against APESV found: 0
[3]; I.1 31.25 g/ha, B.88 1 g/ha a.i.
  herbicidal activity against APESV found: 0
[3]; I.1 31.25 g/ha, B.88 2 g/ha a.i.
  herbicidal activity against APESV found: 0
[3]; I.1 62.5 g/ha, B.88 1 g/ha a.i.
  herbicidal activity against APESV found: 10
[3]; I.1 62.5 g/ha, B.88 2 g/ha a.i.
  herbicidal activity against APESV found: 10
[3]; I.1 62.5 g/ha, B.95 1 g/ha a.i.
  herbicidal activity against APESV found: 10
[3]; a.i. g/ha: I.1 2.3, B.67 62.5, 20 days after treatment
  herbicidal activity against APESV found: 0%
[3]; [5]
  herbicidal activity against APESV found: 0%
[3]; applied alone at 31.25 g/ha a.i.
  herbicidal activity against APESV found: 0
[3]; applied alone at 125 g/ha a.i.
  herbicidal activity against APESV found: 15
[3]; g/ha a.i.: I.1 31.25, B.24 1, mixture 31.25+1
  herbicidal activity against APESV found: 20
[3]; g/ha a.i.: I.1 62.5, B.20 4, mixture 62.5+4
  herbicidal activity against APESV found: 20
[3]; g/ha a.i.: I.1 62.5, B.52 2.5, mixture 62.5+2.5
  herbicidal activity against APESV found: 20
[3]; g/ha a.i.: I.1 125, B.52 2.5, mixture 125+2.5
  herbicidal activity against APESV found: 35
[4]; Ipomoea hederacea, post-emergence, 480 h, read-out: herbicidal activity against IPOHE found
  pest or weed control at 31.25 g/ha: 75%
[4]; Ipomoea hederacea, post-emergence, 480 h, 62.5 g/ha a.i., read-out: herbicidal activity against IPOHE found
  pest or weed control at 62.5 g/ha: 90%
[4]; Ipomoea hederacea, post-emergence, 480 h, single active, read-out: herbicidal activity against IPOHE found
  pest or weed control at 31.25 g/ha: 55%
[4]; Ipomoea hederacea, post-emergence, 480 h, single active, 125 g/ha a.i., read-out: herbicidal activity against IPOHE found
  pest or weed control at 125 g/ha: 95%
[4]; 6 days after treatment, g/ha a.i.: I.1 31.25, B.96 35, mixture 31.25+35
  herbicidal activity against IPOHE found: 70
[4]; 6 days after treatment, g/ha a.i.: I.1 31.25, B.96 70, mixture 31.25+70
  herbicidal activity against IPOHE found: 70
[4]; 6 days after treatment, g/ha a.i.: I.1 31.25, B.96 140, mixture 31.25+140
  herbicidal activity against IPOHE found: 70
[4]; 6 days after treatment, g/ha a.i.: I.1 62.5, B.96 140, mixture 62.5+140
  herbicidal activity against IPOHE found: 80
[4]; I.1 15.6 g/ha, B.103 7.5 g/ha a.i.
  herbicidal activity against IPOHE found: 20
[4]; I.1 15.62 g/ha, B.89 25 g/ha a.i.
  herbicidal activity against IPOHE found: 25
[4]; I.1 31.25 g/ha, B.103 15 g/ha a.i.
  herbicidal activity against IPOHE found: 70
[4]; I.1 31.25 g/ha, B.89 25 g/ha a.i.
  herbicidal activity against IPOHE found: 25
